Test results taken from patent US20020142982A1, “Method for regulating angiogenesis” (priority 1999, published 2002).

Key:
HUVEC [1] = assay: C2-Ceramide-induced apoptosis of HUVEC (DNA fragmentation); assay type: cell-based, human; settings: SPP 10 to 500 nM, 1 μM C2-Ceramide, 12 hours
Description: The ability of SPP to protect endothelial cells from apoptosis was investigated. In these experiments, HUVEC were treated with 1 μM C2-Ceramide for 12 hours and apoptosis was measured in the following manner: HUVEC were plated onto coverslips and allowed to grow for 2 days. Cells were washed three times with medium M199, and treated with 1 μM C2-Ceramide (Biomol) for 12 hours in the presence or absence of SPP. Subsequently, cells were fixed with methanol at −20° C. for 5 minutes, air dried, and stained with Hoechst 33258 dye (0.5 μg/mL for 5 minutes; Sigma Chemical Co., St. Louis, Mo.). The apoptotic nuclei were identified with the aid of a Zeiss Axiovert 100TB fluorescence microscope. For quantification, HUVEC were labeled with ^3Hmethyl-thymidine (5 μCi/mL, NEN DuPont) for 24 hours. Following three washes with medium M199, cells were treated with C2-Ceramide as above. 12 hours later, cells were extracted with lysis buffer (5 mM tris, pH 7.4, 2 mM EDTA, 0.5% TX-100) at 4° C. for 20 minutes. After centrifugation (15,000 g, 20 minutes), the radioactivity present in the supernatant and sediment was measured by liquid scintillation counting. The percentage of DNA fragmentation was determined as ((supernatant cpm)/(supernatant cpm+sediment cpm))×100%.
SPP+PTx and SPP+PD98059 (10 μM), respectively, for 2 hours prior to the addition of C2-Ceramide (1 μM) and SPP (10 to 500 nM). Data are mean±standard deviation of triplicate determinations from a representative experiment which was repeated two times. […] A similar effect was also seen when growth factor withdrawal, and 15-deoxy Δ^12,14 prostaglandin J2 were used as apoptotic stimuli (data not shown). […] Therefore SPP induced endothelial cell survival requires the Gi/ERK signaling pathway.

[2] = test system: MATRIGEL plugs implanted into athymic mice; assay: MATRIGEL implant model of subcutaneous angiogenesis in athymic mice; assay type: in vivo
Description: To disclose if SPP regulates angiogenesis in vivo, A MATRIGEL implant model of subcutaneous angiogenesis in […] mice was used. In these experiments, female […] mice (4-6 weeks old) were injected subcutaneously with 0.4 mL MATRIGEL (approximate protein concentration 9.9 mg/mL, Collaborative Research) premixed with vehicle (fatty acid-free BSA, 115 μg/mL, Sigma), or FGF-2 (1.3 μg/mL) in the absence or presence of various concentrations of SPP. Seven days later, MATRIGEL plugs were harvested along with underlying skin and the gross angiogenic response was recorded under a Zeiss Stemi SV6 dissecting microscope. For quantification, MATRIGEL plugs were fixed with 4% paraformaldehyde in PBS, dehydrated in ethanol and xylene, embedded in paraffin, and sections subjected to hematoxylin and eosin staining. Angiogenesis was quantified by direct counting of vessels containing red blood cells residing in the stroma interface and the MATRIGEL implant. Each treatment involved 4 mice. 2 random sections from each were quantified and represented as mean±standard deviation. […]
In these experiments, MATRIGEL plugs were fixed, dehydrated, embedded, and sections were subjected to hematoxylin and eosin staining. Angiogenesis was quantified by direct counting of vascular structures as described. Vascular density for each treatment was quantified and represented as mean±standard deviation (n=4). […]

HUVEC [3] = assay: SPP-induced intracellular calcium in HUVEC (Indo-1 fluorescence); assay type: cell-based, human; settings: HUVEC stimulated with SPP
Description: Functional assays were used to test for the presence of Gi-coupled and Gq-coupled SPP receptors in HUVEC. First, intracellular calcium levels were measured in response to SPP. For these experiments, cells were grown on 100-mm tissue culture dishes and loaded with the fluorescent calcium-sensitive dye, Indo-1 acetoxymethyl ester (Indo-1/AM, 5 μg/mL; Molecular Probes, Inc., Eugene, Oreg.), for 30 min at 37° C. Cells were then washed with medium M199, briefly trypsinized (0.05% porcine trypsin/0.02% EDTA in HBSS (JRH Biosciences, Lenexa, Kans.), and the trypsin activity was immediately neutralized with soybean trypsin inhibitor (5 μg/mL, Sigma Chemical Co., St. Louis, Mo.). Following centrifugation (250 g×5 min), cells were resuspended in M199 medium to a density of 2.7×10^5 cells/mL. Cells were then stimulated with different doses of SPP. Some cells were pretreated with the Gi inhibitor pertussis toxin (PTx, 500 ng-/mL) for 16 hours. Calcium ion concentration was then quantified by measuring changes in indo-1 fluorescence in 2 mL of cell suspension by a Hitachi F-2000 fluorescence Spectrophotometer with constant stirring. Fluorescence emission was monitored at 400 and 475 nm with excitation at 352 nm. [Ca^+2]1 was calculated as described in Volpi and Berlin, J. Cell Biol., Vol. 107, 2533-39 (1988).

[4] = test system: bovine microvascular endothelial cells; assay: Morphogenesis of bovine microvascular endothelial cells; assay type: cell-based; settings: SPP 100 nM to 1 μM, data not shown
HUVEC [5] = assay: Adherens junction assembly in HUVEC, immunofluorescence of VE-cadherin and catenins; assay type: cell-based, human; settings: 500 nM, 1 hour
Description: To investigate whether SPP regulates the formation of adherens junction in endothelial cells, HUVEC were plated at a density of 2×10^4 cells/em^2 for 2 days, starved in lipid-depleted medium and treated without (cont) or with SPP (500 nM for 1 hours). For these experiments, after treatment cells were washed with ice-cold PBS, fixed with 4% formaldehyde at room temperature or methanol at −20° C. for 15 minutes. In the case of formaldehyde fixation, cells were permeabilized with 0.2% TX-100. After washing with PBS, cells were stained with antibodies as follows: VE-cadherin ([…], Transduction Labs, San Diego, Calif.; 1 μg/mL, Santa Cruz Biotechnology, Inc., Santa Cruz, Calif.), α-catenin ([…], Transduction Labs), β-catenin (1.25 μg/mL, Transduction Labs; 0.4 μg/mL, Santa Cruz), γ-catenin ([…], Transduction Labs). The primary antibody staining was visualized with FITC-conjugated goat anti-rabbit or TRITC conjugated sheep anti-mouse (1:1000, Cappel, now owned by ICN, Costa Mesa, Calif.) for 30 minutes at room temperature, and imaged on a Zeiss Axiovert 100TV fluorescence microscope. […]

With `CCCCCCCCCCCCC/C=C/[C@@H](O)[C@@H](N)COP(=O)(O)O` [SPP, sphingosine-1-phosphate] the “protection from apoptosis induced by C2-Ceramide” value (HUVEC [1]) was “significantly protected”, the “angiogenesis with SPP alone” value ([2]; MATRIGEL plug without FGF-2) was “did not induce significant angiogenesis” and the “FGF-2 induced angiogenesis (vascular density)” value ([2]; SPP + FGF-2 1.3 μg/mL in MATRIGEL plug, seven days) was “dramatically enhanced”. The intracellular calcium response (HUVEC [3]) was “robust calcium response”, the “morphogenesis of bovine microvascular endothelial cells” value [4] was “induced morphogenesis” and the “VE-cadherin, α-, β- and γ-catenin localization at cell-cell junctions” value (HUVEC [5]) was “dramatically increased”.
